Results as given in patent US20230391772A1, “METHODS AND COMPOSITIONS FOR TARGETED PROTEIN DEGRADATION” (Ranok Therapeutics (Hangzhou) Co. Ltd., priority 2020, published 2023).

Assays:
KRAS(G12C) [1] = molecular target: T1, KRAS(G12C) (Homo sapiens, UniProt P01116, G12C); assay: KRAS(G12C) Western blot protein degradation assay in LU65A cells; format: cell-based; set-up: LU65A human lung cancer cell line, which expresses KRAS(G12C); host or cells: LU65A; conditions: 6 hr
Outline: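 Cells treated with compound at various concentrations at 37 °C for 48 hr (MIA PaCa-2) or 6 hr (LU65A), then lysed in RIPA. Protein-normalized lysates immunoblotted for KRAS with β-actin, fluorescence quantified; DC50 is the concentration giving 50% of maximal KRAS degradation.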

KRAS(G12C) [2] = molecular target: T1, KRAS(G12C); assay: KRAS(G12C)/SOS1 homogeneous time-resolved fluorescence (HTRF) assay; set-up: purchased Cisbio 63ADK000CB16PEG; conditions: absence of GTP, 4° C. for 3 hr, read-out: KRAS (G12C) binding
Outline: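 HTRF kit measuring compound-induced block of KRAS(G12C)-SOS1 interaction without GTP. Compounds tested as 3-fold serial dilutions down to 1.02 nM, incubated with reaction components 3 h at 4 °C in sealed plates before fluorescence read.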

HSP90a protein = molecular target: T2, HSP90a protein (Homo sapiens, UniProt P07900); assay: HSP90α-binding fluorescent polarization (FP) assay, BODIPY-labeled RNK04010 probe; conditions: FP competition with RNK04010 (BODIPY-labeled), 5 nM, 300 min at 25° C.
T2 construct: purchased BPS Bioscience 50298
Outline: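 Test compounds (2.5-fold serial dilution, 20 μM to 5.2 nM) competed with a fluorescent tracer for N-terminal HSP90a, with fluorescence polarization as the read-out. FITC-geldanamycin tracer was used at 5 nM final with 120 min incubation at 25° C; BODIPY-labeled RNK04010 was used at 5 nM final with 300 min incubation.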

[3] = system: MIA PaCa-2 human pancreatic carcinoma; assay: MIA PaCa-2 CCK-8 proliferation assay; format: cell-based; conditions: Homo sapiens, MIA PaCa-2, 72 h, MIA PaCa-2 cells
Outline: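 Percent inhibition derived from CCK-8 optical signal, normalised between DMSO-only cells (0%) and cell-free medium containing DMSO as background. Cells: MIA PaCa-2 carrying 2 KRAS(G12C) copies; NCI-H358, NCI-H23 carrying 1 copy apiece. Concentrations spanned 1.02 nM–20 μM in threefold increments.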

T1 sequence (P01116 1-188 isoform P01116-2 G12C): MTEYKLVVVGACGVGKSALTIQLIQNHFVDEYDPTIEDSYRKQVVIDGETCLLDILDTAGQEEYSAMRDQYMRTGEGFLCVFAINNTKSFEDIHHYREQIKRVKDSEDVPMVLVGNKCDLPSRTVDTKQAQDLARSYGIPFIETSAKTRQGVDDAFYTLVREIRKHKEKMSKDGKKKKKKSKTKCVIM

Compound | DC50 (KRAS(G12C) [1]) | IC50 (KRAS(G12C) [2]) | IC50 (HSP90a protein) | EC50 [3]
C=CC(=O)N1CCN(c2nc(OCC3CN(C(=O)C4CCN(Cc5ccc(-n6c(C(=O)NCC(F)(F)F)nnc6-c6cc(C(C)C)c(O)cc6O)cc5)CC4)C3)nc3c2CCN(c2cccc4cccc(Cl)c24)C3)C[C@@H]1CC#N [Compound 220, (S)-4-(4-((4-(3-(((4-(4-acryloyl-3-(cyanomethyl)piperazin-1-yl)-7-(8-chloronaphthalen-1-yl)-5,6,7,8-tetrahydropyrido[3,4-d]pyrimidin-2-yl)oxy)methyl)azetidine-1-carbonyl)piperidin-1-yl)methyl)phenyl)-5-(2,4-dihydroxy-5-isopropylphenyl)-N-(2,2,2-trifluoroethyl)-4H-1,2,4-triazole-3-carboxamide] | > 1000 nM | 100 to 1000 nM | < 100 nM | 100 to 1000 nM
C=CC(=O)N1CCN(c2nc(OCCN3CCN(C(=O)C4CCN(Cc5ccc(-n6c(O)nnc6-c6cc(C)c(O)cc6O)cc5)CC4)CC3)nc3c2CCN(c2cccc4cccc(Cl)c24)C3)C[C@@H]1CC#N [Compound 223, (S)-2-(1-acryloyl-4-(7-(8-chloronaphthalen-1-yl)-2-(2-(4-(1-(4-(3-(2,4-dihydroxy-5-methylphenyl)-5-hydroxy-4H-1,2,4-triazol-4-yl)benzyl)piperidine-4-carbonyl)piperazin-1-yl)ethoxy)-5,6,7,8-tetrahydropyrido[3,4-d]pyrimidin-4-yl)piperazin-2-yl)acetonitrile] | 100 to 1000 nM | < 100 nM | < 100 nM | > 1000 nM
C=C(F)C(=O)N1CCN(c2nc(OCCN3CCN(C(=O)C4CCN(Cc5ccc(-n6c(O)nnc6-c6cc(C(C)C)c(O)cc6O)cc5)CC4)CC3)nc3c2CCN(c2cccc4cccc(Cl)c24)C3)C[C@@H]1CC#N [Compound 224, (S)-2-(4-(7-(8-chloronaphthalen-1-yl)-2-(2-(4-(1-(4-(3-(2,4-dihydroxy-5-isopropylphenyl)-5-hydroxy-4H-1,2,4-triazol-4-yl)benzyl)piperidine-4-carbonyl)piperazin-1-yl)ethoxy)-5,6,7,8-tetrahydropyrido[3,4-d]pyrimidin-4-yl)-1-(2-fluoroacryloyl)piperazin-2-yl)acetonitrile] | > 1000 nM | > 1000 nM | < 100 nM | 100 to 1000 nM
C=CC(=O)N1CCN(c2nc(OC[C@@H]3CC[C@H](CN4CCN(Cc5ccc(-n6c(O)nnc6-c6cc(C)c(O)cc6O)cc5)CC4)N3C)nc3c2CCN(c2cccc4cccc(Cl)c24)C3)C[C@@H]1CC#N [Compound 227, 2-[(2S)-4-[7-(8-chloronaphthalen-1-yl)-2-{[(2S,5R)-5-{[4-({4-[3-(2,4-dihydroxy-5-methylphenyl)-5-hydroxy-1,2,4-triazol-4-yl]phenyl}methyl)piperazin-1-yl]methyl}-1-methylpyrrolidin-2-yl]methoxy}-5H,6H,8H-pyrido[3,4-d]pyrimidin-4-yl]-1-(prop-2-enoyl)piperazin-2-yl]acetonitrile] | > 1000 nM | < 100 nM | < 100 nM | 100 to 1000 nM
C=CC(=O)N1CCN(c2nc(OC[C@@H]3C[C@H](N4CCC5(CCN(Cc6ccc(-n7c(O)nnc7-c7cc(C)c(O)cc7O)cc6)CC5)CC4)CN3C)nc3c2CCN(c2cccc4cccc(Cl)c24)C3)C[C@@H]1CC#N [Compound 228, 2-[(2S)-4-[7-(8-chloronaphthalen-1-yl)-2-{[(2S,4S)-4-[9-({4-[3-(2,4-Dihydroxy-5-methylphenyl)-5-hydroxy-1,2,4-triazol-4-yl]phenyl}methyl)-3,9-diazaspiro[5.5]undecan-3-yl]-1-methylpyrrolidin-2-yl]methoxy}-5H,6H,8H-pyrido[3,4-d]pyrimidin-4-yl]-1-(prop-2-enoyl)piperazin-2-yl]acetonitrile] | > 1000 nM | < 100 nM | < 100 nM | 100 to 1000 nM
C=CC(=O)N1CCN(c2nc(OC[C@@H]3C[C@H](C(=O)N[C@@H]4CCCN(Cc5ccc(-n6c(O)nnc6-c6cc(C(C)C)c(O)cc6O)cc5)C4)CN3C)nc3c2CCN(c2cccc4cccc(Cl)c24)C3)C[C@@H]1CC#N [Compound 229, (3S,5S)-5-({[7-(8-chloronaphthalen-1-yl)-4-[(3S)-3-(cyanomethyl)-4-(prop-2-enoyl)piperazin-1-yl]-5H,6H,8H-pyrido[3,4-d]pyrimidin-2-yl]oxy}methyl)-N-[(3R)-1-({4-[3-(2,4-dihydroxy-5-isopropylphenyl)-5-hydroxy-1,2,4-triazol-4-yl]phenyl}methyl)piperidin-3-yl]-1-methylpyrrolidine-3-carboxamide] | > 1000 nM | < 100 nM | < 100 nM | > 1000 nM
C=CC(=O)N1CCN(c2nc(OC[C@@H]3C[C@H](C(=O)N4CC5(CCN(Cc6ccc(-n7c(O)nnc7-c7cc(C(C)C)c(O)cc7O)cc6)CC5)C4)CN3C)nc3c2CCN(c2cccc4cccc(Cl)c24)C3)C[C@@H]1CC#N [Compound 230, 2-[(2S)-4-[7-(8-chloronaphthalen-1-yl)-2-{[(2S,4S)-4-[7-({4-[3-(2,4-dihydroxy-5-isopropylphenyl)-5-hydroxy-1,2,4-triazol-4-yl]phenyl}methyl)-2,7-diazaspiro[3.5]nonane-2-carbonyl]-1-methylpyrrolidin-2-yl]methoxy}-5H,6H,8H-pyrido[3,4-d]pyrimidin-4-yl]-1-(prop-2-enoyl)piperazin-2-yl]acetonitrile] | > 1000 nM | < 100 nM | < 100 nM | 100 to 1000 nM
C=CC(=O)N1CCN(c2nc(OCC3CN(Cc4ccc(-n5c(O)nnc5-c5cc(C(C)C)c(O)cc5O)cc4)C3)nc3c2CCN(c2cccc4cccc(Cl)c24)C3)C[C@@H]1CC#N [Compound 231, (S)-2-(1-acryloyl-4-(7-(8-chloronaphthalen-1-yl)-2-((1-(4-(3-(2,4-dihydroxy-5-isopropylphenyl)-5-hydroxy-4H-1,2,4-triazol-4-yl)benzyl)azetidin-3-yl)methoxy)-5,6,7,8-tetrahydropyrido[3,4-d]pyrimidin-4-yl)piperazin-2-yl)acetonitrile] | > 1000 nM | 100 to 1000 nM | < 100 nM | > 1000 nM
C=CC(=O)N1CCN(c2nc(OCC3CN(Cc4ccc(-n5c(O)nnc5-c5cc(C)c(O)cc5O)cc4)C3)nc3c2CCN(c2cccc4cccc(Cl)c24)C3)C[C@@H]1CC#N [Compound 232, (S)-2-(1-acryloyl-4-(7-(8-chloronaphthalen-1-yl)-2-((1-(4-(3-(2,4-dihydroxy-5-methylphenyl)-5-hydroxy-4H-1,2,4-triazol-4-yl)benzyl)azetidin-3-yl)methoxy)-5,6,7,8-tetrahydropyrido[3,4-d]pyrimidin-4-yl)piperazin-2-yl)acetonitrile] | > 1000 nM | < 100 nM | < 100 nM | > 1000 nM
C=CC(=O)N1CCN(c2nc(OC[C@@H]3C[C@H](N4CCC(C(=O)N5CCN(Cc6ccc(-n7c(O)nnc7-c7cc(CC)c(O)cc7O)cc6)CC5)CC4)CN3C)nc3c2CCN(c2cccc4cccc(Cl)c24)C3)C[C@@H]1CC#N [Compound 233, 2-[(2S)-4-[7-(8-chloronaphthalen-1-yl)-2-{[(2S,4S)-4-{4-[4-({4-[3-(5-ethyl-2,4-dihydroxyphenyl)-5-hydroxy-1,2,4-triazol-4-yl]phenyl}methyl)piperazine-1-carbonyl]piperidin-1-yl}-1-methylpyrrolidin-2-yl]methoxy}-5H,6H,8H-pyrido[3,4-d]pyrimidin-4-yl]-1-(prop-2-enoyl)piperazin-2-yl]acetonitrile] | > 1000 nM | < 100 nM | < 100 nM | > 1000 nM
C=CC(=O)N1CCN(c2nc(OC[C@@H]3C[C@H](N4CCC(C(=O)N5CCN(Cc6ccc(-n7c(C(=O)NC)nnc7-c7cc(C(C)C)c(O)cc7O)cc6)CC5)CC4)CN3C)nc3c2CCN(c2cccc4cccc(Cl)c24)C3)C[C@@H]1CC#N [Compound 234, 4-{4-[(4-{1-[(3S,5S)-5-({[7-(8-chloronaphthalen-1-yl)-4-[(3S)-3-(cyanomethyl)-4-(prop-2-enoyl)piperazin-1-yl]-5H,6H,8H-pyrido[3,4-d]pyrimidin-2-yl]oxy}methyl)-1-methylpyrrolidin-3-yl]piperidine-4-carbonyl}piperazin-1-yl)methyl]phenyl}-5-(2,4-dihydroxy-5-isopropylphenyl)-N-methyl-1,2,4-triazole-3-carboxamide] | > 1000 nM | < 100 nM | < 100 nM | 100 to 1000 nM
